From ChEMBL document CHEMBL1150741, “Polygodial, an antifungal potentiator” (1988) come the findings set out here.

One assay relates to Micrococcus luteus. Put plainly: Antimicrobial activity against Micrococcus lysodeikticus IFO 3333 after 2 days. Type of assay: functional. To be noted: IFO 3333, 48 h.
The subject of assay [1] is Saccharomyces cerevisiae. Put plainly: Antimicrobial activity against Saccharomyces cerevisiae IFO 0203 after 2 days. The assay is classed as functional. As to conditions: IFO 0203, 48 h.
The subject of assay [2] is Wickerhamomyces anomalus. Put plainly: Antimicrobial activity against Hansenula anomala IFO 0136 after 2 days. Type of assay: functional. As to conditions: IFO 0136, 48 h.
In assay [3] the test system is Cyberlindnera jadinii. Put plainly: Antimicrobial activity against Candida utilis ATCC 42402 after 2 days. To be noted: for MIC: Williopsis jadinii, ATCC 42402, 48 h. The assay is classed as functional.
Another assay relates to Proteus vulgaris. Put plainly: Antimicrobial activity against Proteus vulgaris IAM 12003 after 2 days. As to conditions: IAM 12003, 48 h. Type of assay: functional.
The subject of the next assay is Penicillium crustosum. Put plainly: Antimicrobial activity against Penicillium crustosum Thom after 2 days. Type of assay: functional. As to conditions: 48 h.
Another assay concerns Pseudomonas aeruginosa. Put plainly: Antimicrobial activity against Pseudomonas aeruginosa IAM 1007 after 2 days. Type of assay: functional. As to conditions: IAM 1007, 48 h.
The test system of a further assay is Staphylococcus aureus. Put plainly: Antimicrobial activity against Staphylococcus aureus NCTC 8530 after 2 days. The assay is classed as functional. To be noted: NCTC 8530, 48 h.
The next assay has as its system Sclerotinia. Put plainly: Antimicrobial activity against Sclerotinia libertiana SS after 2 days. As to conditions: 48 h. Type of assay: functional.
Assay [4] relates to Rhizopus microsporus var. chinensis. Put plainly: Antimicrobial activity against Rhizopus chinensis IFO 4745 after 2 days. The assay is classed as functional. To be noted: IFO 4745, 48 h.
The test system of the next assay is Aspergillus niger. Put plainly: Antimicrobial activity against Aspergillus niger ATCC 6275 after 2 days. Type of assay: functional. To be noted: ATCC 6275, 48 h.
The test system of another assay is Escherichia coli. Put plainly: Antimicrobial activity against Escherichia coli IFO 3545 after 2 days. The assay is classed as functional. To be noted: IFO 3545, 48 h.
The test system of a further assay is Bacillus subtilis. Put plainly: Antimicrobial activity against Bacillus subtilis K-49 after 2 days. The assay is classed as functional. To be noted: K-49, 48 h.
Assay [5] has as its system Schizosaccharomyces pombe. Put plainly: Antimicrobial activity against Schizosaccharomyces pombe IFO 0342 after 2 days. Type of assay: functional. As to conditions: IFO 0342, 48 h.
The test system of the next assay is Mucor mucedo. Put plainly: Antimicrobial activity against Mucor mucedo IFO 7684 after 2 days. To be noted: IFO 7684, 48 h. Type of assay: functional.
Assay [6] concerns Cyberlindnera jadinii. Put plainly: Antifungal activity against Candida utilis ATCC 42402 in Henneberg medium at pH 3.1 after 2 days. The assay is classed as functional. As to conditions: Williopsis jadinii, ATCC 42402, 48 h.
For assay [7], the system named is Cyberlindnera jadinii. Put plainly: Antifungal activity against Candida utilis ATCC 42402 in Henneberg medium at pH 5.2 after 2 days. Type of assay: functional. To be noted: Williopsis jadinii, ATCC 42402, 48 h.
The test system of assay [8] is Cyberlindnera jadinii. Put plainly: Antifungal activity against Candida utilis ATCC 42402 in Henneberg medium at pH 7 after 2 days. Type of assay: functional. As to conditions: Williopsis jadinii, ATCC 42402, 48 h.
The test system of assay [9] is Saccharomyces cerevisiae. Put plainly: Antifungal activity against Saccharomyces cerevisiae IFO 0203 in Henneberg medium at pH 5.2 after 2 days. Type of assay: functional. To be noted: IFO 0203, 48 h.
In assay [10] the test system is Wickerhamomyces anomalus. Put plainly: Antifungal activity against Hansenula anomala IFO 0136 in Henneberg medium at pH 5.2 after 2 days. Type of assay: functional. To be noted: IFO 0136, 48 h.
In assay [11] the test system is Saccharomyces cerevisiae. Put plainly: Antifungal activity against Saccharomyces cerevisiae IFO 0203 assessed as organelle disorganization at 50 ug/mL after 10 mins by microscopy. The assay is classed as functional, organism-based.
The subject of assay [12] is Schizosaccharomyces pombe. Put plainly: Antifungal activity against Schizosaccharomyces pombe IFO 0342 in Henneberg medium at pH 3.1 after 2 days. The assay is classed as functional. As to conditions: IFO 0342, 48 h.
The subject of assay [13] is Wickerhamomyces anomalus. Put plainly: Antifungal activity against Hansenula anomala IFO 0136 in Malt Wort medium at pH 5 after 2 days. The assay is classed as functional. To be noted: IFO 0136, 48 h.
Assay [14] relates to Wickerhamomyces anomalus. Put plainly: Antifungal activity against Hansenula anomala IFO 0136 in Henneberg medium at pH 7 after 2 days. The assay is classed as functional. To be noted: IFO 0136, 48 h.
The subject of assay [15] is Saccharomyces cerevisiae. Put plainly: Antifungal activity against Saccharomyces cerevisiae IFO 0203 in Malt Wort medium at pH 5 after 2 days. Type of assay: functional. To be noted: IFO 0203, 48 h.
The subject of assay [16] is Saccharomyces cerevisiae. Put plainly: Antifungal activity against Saccharomyces cerevisiae IFO 0203 in Henneberg medium at pH 3.1 after 2 days. The assay is classed as functional. To be noted: IFO 0203, 48 h.
For assay [17], the system named is Saccharomyces cerevisiae. Put plainly: Antifungal activity against Saccharomyces cerevisiae IFO 0203 in Henneberg medium at pH 7 after 2 days. Type of assay: functional. To be noted: IFO 0203, 48 h.
For assay [18], the system named is Schizosaccharomyces pombe. Put plainly: Antifungal activity against Schizosaccharomyces pombe IFO 0342 in Henneberg medium at pH 5.2 after 2 days. Type of assay: functional. To be noted: IFO 0342, 48 h.
The test system of assay [19] is Saccharomyces cerevisiae. Put plainly: Antifungal activity against Saccharomyces cerevisiae IFO 0203 assessed as leakage of cellular constituents at 1 to 10 ug/mL by folin reagent method. Type of assay: functional, organism-based.
Assay [20] has as its system Saccharomyces cerevisiae. Put plainly: Antifungal activity against Saccharomyces cerevisiae IFO 0203 assessed as fetal loss of cellular constituents at 50 ug/mL after 10 mins by microscopy. The assay is classed as functional, organism-based.
The subject of assay [21] is Schizosaccharomyces pombe. Put plainly: Antifungal activity against Schizosaccharomyces pombe IFO 0342 in Henneberg medium at pH 7 after 2 days. Type of assay: functional. To be noted: IFO 0342, 48 h.
Assay [22] has as its system Schizosaccharomyces pombe. Put plainly: Antifungal activity against Schizosaccharomyces pombe IFO 0342 in Malt Wort medium at pH 5 after 2 days. The assay is classed as functional. As to conditions: IFO 0342, 48 h.
Assay [23] relates to Wickerhamomyces anomalus. Put plainly: Antifungal activity against Hansenula anomala IFO 0136 in Henneberg medium at pH 3.1 after 2 days. To be noted: IFO 0136, 48 h. The assay is classed as functional.
Assay [24] has as its system Cyberlindnera jadinii. Put plainly: Antifungal activity against Candida utilis ATCC 42402 in Malt Wort medium at pH 5 after 2 days. The assay is classed as functional. As to conditions: Williopsis jadinii, ATCC 42402, 48 h.
Assay [25] concerns Saccharomyces cerevisiae. Put plainly: Antifungal activity against Saccharomyces cerevisiae IFO 0203 assessed as leakage of cellular constituents at 1 to 10 ug/mL by phenol-sulphuric acid reagent method. Type of assay: functional, organism-based.

≈ marks a conversion by molar mass, not a printed value. Calls of active or inactive are those of the source. The calls are words filed in the database; no cut-off is given here. Starred links: 1 amine or outer side, 2 acyl side, 3 side chain; linkers in the order of their positions; H or OH if unused. Positions of bridges follow the written chain, without caps; N, C: chain ends. Non-standard residues stand in square brackets, D forms with d. Residues, ends and D or L forms follow the SMILES beside them. Chains are numbered I, II in the order given. Actinocin(9to1) = Cc1c2oc3c(C)ccc(C(=O)[*:1])c3nc-2c(C(=O)[*:2])c(N)c1=O; NMeV = CN[C@H](C(=O)O)C(C)C; Sar = CNCC(=O)O

For `C=C1[C@@H](C)CC[C@@]2(C)[C@H]1CC=C(C=O)[C@]2(O)C=O`, the MIC (usually the least concentration at which growth counts as inhibited) in the assay on Micrococcus luteus was over 100 µg/mL; with Saccharomyces cerevisiae [1], 1.56 µg/mL (≈ 6.28 µM); against Wickerhamomyces anomalus [2], 25 µg/mL (≈ 101 µM); against Cyberlindnera jadinii [3], 3.13 µg/mL (≈ 12.6 µM); against Proteus vulgaris, over 100 µg/mL; against Penicillium crustosum it was 50 µg/mL (≈ 201 µM). Moreover, the MIC in the assay with Pseudomonas aeruginosa was over 100 µg/mL; in the assay with Staphylococcus aureus it was over 100 µg/mL; against Sclerotinia, 3.13 µg/mL (≈ 12.6 µM); in [4], 100 µg/mL (≈ 403 µM); in the assay on Aspergillus niger it was 50 µg/mL (≈ 201 µM); against Escherichia coli, over 100 µg/mL. Further, the minimal inhibitory concentration (MIC) is over 100 µg/mL with Bacillus subtilis, 25 µg/mL (≈ 101 µM) in assay [5] and 25 µg/mL (≈ 101 µM) in the assay with Mucor mucedo.

Consider `Cc1c2oc3c(C)ccc(C(=O)N[C@@H]4C(=O)N[C@H](C(C)C)C(=O)N5CCC[C@H]5C(=O)N(C)CC(=O)N(C)[C@@H](C(C)C)C(=O)O[C@@H]4C)c3nc-2c(C(=O)N[C@@H]2C(=O)N[C@H](C(C)C)C(=O)N3CCC[C@H]3C(=O)N(C)CC(=O)N(C)[C@@H](C(C)C)C(=O)O[C@@H]2C)c(N)c1=O` (I: T[dV]P[Sar][NMeV] / II: T[dV]P[Sar][NMeV]; ester I:1-I:C, II:1-II:C; linker I:N-II:N via Actinocin(9to1)), for which the outcome with Cyberlindnera jadinii [3] was inactive.

`CC1(C)CCC[C@]2(C)[C@@H](C=O)C(C=O)=CC[C@@H]12` [POLYGODIAL]: the MIC is 0.78 µg/mL (≈ 3.33 µM) with Cyberlindnera jadinii [6]; over 100 µg/mL in the assay with Micrococcus luteus; 3.13 µg/mL (≈ 13.4 µM) in the assay with Cyberlindnera jadinii [7]; over 25 µg/mL against Cyberlindnera jadinii [8]; 0.78 µg/mL (≈ 3.33 µM) with Saccharomyces cerevisiae [1]; 1.56 µg/mL (≈ 6.66 µM) against Saccharomyces cerevisiae [9]. The MIC was 6.25 µg/mL (≈ 26.7 µM) against Wickerhamomyces anomalus [10]; 6.25 µg/mL (≈ 26.7 µM) in assay [12]; 1.56 µg/mL (≈ 6.66 µM) in the assay on Wickerhamomyces anomalus [13]; 1.56 µg/mL (≈ 6.66 µM) in the assay on Wickerhamomyces anomalus [2]; 1.56 µg/mL (≈ 6.66 µM) against Cyberlindnera jadinii [3]; over 100 µg/mL against Proteus vulgaris. The MIC against Penicillium crustosum was 25 µg/mL (≈ 107 µM); in the assay with Wickerhamomyces anomalus [14], over 25 µg/mL; in the assay with Saccharomyces cerevisiae [15] it was 0.78 µg/mL (≈ 3.33 µM); against Saccharomyces cerevisiae [16], 0.2 µg/mL (≈ 0.853 µM); in the assay with Saccharomyces cerevisiae [17], over 25 µg/mL; in [18], 25 µg/mL (≈ 107 µM). Also, the MIC against Pseudomonas aeruginosa is over 100 µg/mL; in the assay on Staphylococcus aureus it was over 100 µg/mL; in assay [21], over 25 µg/mL; in the assay with Sclerotinia, 1.56 µg/mL (≈ 6.66 µM); in assay [22], 6.25 µg/mL (≈ 26.7 µM); against Wickerhamomyces anomalus [23], 1.56 µg/mL (≈ 6.66 µM). The MIC in assay [4] was 12.5 µg/mL (≈ 53.3 µM); with Aspergillus niger, 25 µg/mL (≈ 107 µM); against Cyberlindnera jadinii [24], 1.56 µg/mL (≈ 6.66 µM); against Escherichia coli, over 100 µg/mL; in the assay on Bacillus subtilis, over 100 µg/mL; in [5] it was 6.25 µg/mL (≈ 26.7 µM). For the same compound, in the assay with Mucor mucedo, the MIC turned out to be 6.25 µg/mL (≈ 26.7 µM). Also, the outcome with Saccharomyces cerevisiae [11], in the assay with Saccharomyces cerevisiae [19], in the assay with Saccharomyces cerevisiae [20] and in the assay with Saccharomyces cerevisiae [25] was Active.

As for `CC1(C)CCC[C@@]2(C)[C@H]1CC=C(C=O)[C@]2(O)C=O` [WARBURGANAL], the MIC against Micrococcus luteus was over 100 µg/mL; against Saccharomyces cerevisiae [1] it was 3.13 µg/mL (≈ 12.5 µM); against Wickerhamomyces anomalus [2] it was 12.5 µg/mL (≈ 49.9 µM); against Cyberlindnera jadinii [3], 3.13 µg/mL (≈ 12.5 µM); with Proteus vulgaris it was over 100 µg/mL; against Penicillium crustosum, 50 µg/mL (≈ 200 µM). Further, the minimal inhibitory concentration (MIC) was over 100 µg/mL with Pseudomonas aeruginosa; over 100 µg/mL against Staphylococcus aureus; 3.13 µg/mL (≈ 12.5 µM) with Sclerotinia; 100 µg/mL (≈ 399 µM) in assay [4]; 50 µg/mL (≈ 200 µM) in the assay with Aspergillus niger; over 100 µg/mL in the assay with Escherichia coli. Also, the MIC against Bacillus subtilis was over 100 µg/mL; in assay [5] it was 12.5 µg/mL (≈ 49.9 µM); in the assay with Mucor mucedo it was 25 µg/mL (≈ 99.9 µM).
